Measurements as given in patent publication US8871933B2, “Purified pyrroloquinolinyl-pyrrolidine-2,5-dione compositions and methods for preparing and using same” (ArQule, Inc., priority 2009, dated 2014).
In brackets after ≈: the same amount, converted by molar mass. Values belong to the molecule of their own block, whether it stands above or below them.

Legend:
[1] = test system: MDA-MB-231 cells or MIA PaCa-2 (PACA-2) cells; assay: Cell survival in six-well plates, Wright-Giemsa stain; type: cell-based; details: Homo sapiens; 0.1-2 μM, 10-15 days; MDA-MB-231 or Paca-2 cells, cell line of the IC50 not stated
Protocol: Exponentially growing MDA-MB-231 cells or MIA PaCa-2 (also known as PACA-2) cells were seeded at 1,000 cells per well in six-well plates and allowed to attach for 24 hours. MDA-MB-231 and MIA PaCa-2 cells were cultured in DMEM supplemented with 10% (v/v) fetal bovine serum (FBS) and 5 ml Penicillin/Streptomycin at 37° C. in 5% CO2. MDA-MB-231 and MIA PaCa-2 were established in estrogen receptor-negative human breast cancer and pancreatic carcinoma cell lines, respectively. (±)-cis-3-(5,6-dihydro-4H-pyrrolo[3,2,1-ij]quinolin-1-yl)-4-(1H-indol-3-yl)pyrrolidine-2,5-dione or (±)-trans-3-(5,6-dihydro-4H-pyrrolo[3,2,1-ij]quinolin-1-yl)-4-(1H-indol-3-yl)pyrrolidine-2,5-dione were each dissolved at a concentration of 10 mM in DMSO, and separately added to cells at a concentration of 0.1, 0.25, 0.5, 1 or 2 μM. Control plates received DMSO alone, at the same percentage of total culture volume as that administered in conjunction with the highest concentration of drug. Cell cultures were observed daily for 10-15 days, then fixed and stained with modified Wright-Giemsa stain (Sigma). Treatment with (±)-cis-3-(5,6-dihydro-4H-pyrrolo[3,2,1-ij]quinolin-1-yl)-4-(1H-indol-3-yl)pyrrolidine-2,5-dione or (±)-trans-3-(5,6-dihydro-4H-pyrrolo[3,2,1-ij]quinolin-1-yl)-4-(1H-indol-3-yl)pyrrolidine-2,5-dione results in cell death of MDA-MB-231 cells or Paca-2 cells. See, e.g., FIG. 2.

[2] = molecular target: Recombinant Protein Kinase C; assay: Protein Kinase C kinase assay (Histone H1, 32P-ATP, autoradiography); type: biochemical; design: dose or concentration left out as unconfirmed; details: for 15 minutes at room temperature
Protocol: Recombinant Protein Kinase C (Calbiochem) (100 ng) was incubated with (±)-cis-3-(5,6-dihydro-4H-pyrrolo[3,2,1-ij]quinolin-1-yl)-4-(1H-indol-3-yl)pyrrolidine-2,5-dione or (±)-trans-3-(5,6-dihydro-4H-pyrrolo[3,2,1-ij]quinolin-1-yl)-4-(1H-indol-3-yl)pyrrolidine-2,5-dione at […] for 15 minutes at room temperature. Subsequently, a radioactive labeling mix in kinase buffer (20 mM Tris-HCl pH 7.5, 10 mM MgCl2) containing 20 μM ATP, 0.2 μCi/μl γ^32P-ATP, 0.2 μg/μl Histone H1 (Upstate Biotechnology/Millipore, Bedford, Mass.) was added to each sample. The kinase reaction was carried out for 5 minutes at room temperature. Reaction products were analyzed by 12% SDS-PAGE and autoradiography.

MDA-MB-231 cells = assay: Colony formation / surviving fraction assay; type: cell-based; details: Homo sapiens, two days incubation, colonies counted two weeks later, read-out: IC50 (surviving fraction equaled 50)
Protocol: MDA-MB-231 cells (ATCC #HTB-26), grown in DMEM plus 15% heat inactivated fetal bovine serum plus 10 mM HEPES pH 7.5, were plated in 60 mm^2 plates (2×10^5 cells per plate). After two days candidate compounds in DMSO at various concentrations were diluted in media and added to individual plates such that the final DMSO concentration in the cell culture media was 0.1%. After two days incubation the culture was trypsinized, cells were washed with media, counted using a hemocytometer and 500 cells, including cell bodies, were plated in 100 mm^2 plates in media. Two weeks later the media was removed and the cell colonies were fixed with methanol for 10 minutes, stained with 1% crystal violet for 10 minutes, washed with water and air dried. Cell colonies were visually counted when there were greater then 50 cells present per colony. Plating efficiency was defined as the average number of colonies formed divided by 500. The surviving fraction was defined as the plating efficiency of a candidate compound divided by the plating efficiency of DMSO multiplied by 100. For candidate compound titrations, the IC50 value was determined by fitting the equation y=Ae^Bx to the data points and extrapolating the concentration where surviving fraction equaled 50. […]

c-Met = c-Met (Homo sapiens, UniProt P08581); assay: c-Met phosphorylation in MDA-MB-231 cells, basal and HGF-induced (Western blot); type: cell-based; design: Whole cell extracts were prepared in lysis buffer; endogenous in cells; host or cells: MDA-MB-231; details: 20 μM
Chain of c-Met (P08581 25-1390): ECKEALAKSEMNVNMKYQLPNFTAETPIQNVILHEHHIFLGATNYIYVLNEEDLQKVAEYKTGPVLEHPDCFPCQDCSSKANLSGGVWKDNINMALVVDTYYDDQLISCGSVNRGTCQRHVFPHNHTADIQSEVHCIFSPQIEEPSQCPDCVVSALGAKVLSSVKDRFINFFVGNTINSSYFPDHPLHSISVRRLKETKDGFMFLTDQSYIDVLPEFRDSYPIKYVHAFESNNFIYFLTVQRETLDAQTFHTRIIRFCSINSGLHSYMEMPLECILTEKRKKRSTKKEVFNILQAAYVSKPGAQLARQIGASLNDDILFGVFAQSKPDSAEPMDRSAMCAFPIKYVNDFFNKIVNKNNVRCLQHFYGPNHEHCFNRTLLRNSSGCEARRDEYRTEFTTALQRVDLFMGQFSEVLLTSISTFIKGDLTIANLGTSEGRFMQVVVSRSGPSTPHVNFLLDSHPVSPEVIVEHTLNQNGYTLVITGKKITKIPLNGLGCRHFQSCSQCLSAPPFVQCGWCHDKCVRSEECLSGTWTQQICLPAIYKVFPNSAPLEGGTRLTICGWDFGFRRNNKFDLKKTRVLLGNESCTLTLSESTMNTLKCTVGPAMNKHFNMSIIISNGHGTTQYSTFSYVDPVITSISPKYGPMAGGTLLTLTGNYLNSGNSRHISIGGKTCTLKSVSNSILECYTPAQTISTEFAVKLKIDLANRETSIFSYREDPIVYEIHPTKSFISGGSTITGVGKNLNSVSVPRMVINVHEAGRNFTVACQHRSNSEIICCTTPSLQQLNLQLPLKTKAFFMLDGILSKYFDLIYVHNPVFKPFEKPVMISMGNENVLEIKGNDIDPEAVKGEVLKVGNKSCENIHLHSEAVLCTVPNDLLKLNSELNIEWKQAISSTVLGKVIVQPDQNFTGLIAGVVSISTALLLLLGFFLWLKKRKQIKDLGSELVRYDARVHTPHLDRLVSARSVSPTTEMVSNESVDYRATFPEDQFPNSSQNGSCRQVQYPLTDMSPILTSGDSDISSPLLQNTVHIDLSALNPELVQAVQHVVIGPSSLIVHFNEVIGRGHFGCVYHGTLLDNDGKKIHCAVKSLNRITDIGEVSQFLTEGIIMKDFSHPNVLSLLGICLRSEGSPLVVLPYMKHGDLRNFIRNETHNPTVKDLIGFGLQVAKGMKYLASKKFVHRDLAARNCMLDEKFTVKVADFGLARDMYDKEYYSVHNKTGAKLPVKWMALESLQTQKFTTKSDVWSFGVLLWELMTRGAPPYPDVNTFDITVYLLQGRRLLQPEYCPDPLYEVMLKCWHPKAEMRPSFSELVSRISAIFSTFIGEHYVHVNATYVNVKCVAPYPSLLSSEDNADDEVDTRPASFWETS
Protocol: MDA-MB-231 cells were serum-deprived overnight (16 hours) in the absence or in the presence of the indicated concentrations of the separate enantiomers (+)-trans-3-(5,6-dihydro-4H-pyrrolo[3,2,1-ij]quinolin-1-yl)-4-(1H-indol-3-yl)pyrrolidine-2,5-dione and (−)-trans-3-(5,6-dihydro-4H-pyrrolo[3,2,1-ij]quinolin-1-yl)-4-(1H-indol-3-yl)pyrrolidine-2,5-dione. Cells were treated with 100 ng/ml recombinant human Hepatocyte Growth Factor/Scatter Factor (HGF/SF) (R&D Systems #294-HG) for 10 minutes. Whole cell extracts were prepared in lysis buffer (20 mM Tris-HCl pH 7.5, 150 mM NaCl, 1 mM Na2EDTA, 1 mM EGTA, 1% Triton X-100, 2.5 mM sodium pyrophosphate, 1 mM beta-glycerophosphate, 1 mM Na3VO4, 1 μg/ml leupeptin, 1 mM phenylmethylsulfonyl fluoride) and sonicated. Protein concentration was measured by Bradford assay using the BioRad reagent (BioRad, Hercules, Calif.), according to the manufacturer's directions. Samples ([…] of protein) were resolved by 8% SDS-PAGE under reducing conditions and transferred onto a PVDF membrane (BioRad). […] Proteins were detected by incubation overnight at 4° C. in TBS-T with 5% milk and either a polyclonal antibody against phosphorylated c-Met (#3121) or a monoclonal antibody against β-actin (A-5441) (Sigma), which was used as a control for total protein loading. […]

[3] = Interconversion experiments (thermodynamic stability of polymorphs); type: physicochemical
Protocol: Form 1 is orthorhombic and contains four molecules of (−)-trans-3-(5,6-dihydro-4H-pyrrolo[3,2,1-ij]quinolin-1-yl)-4-(1H-indol-3-yl)pyrrolidine-2,5-dione per cell. Form 1 has a melting point of ˜218° C. recorded in DSC (See, FIG. 16).
The two polymorphs can be interconverted when proper conditions are used to control the crystallization process. Form 2 can be obtained by dissolving Form 1 in methanol, seeding with Form 2 and evaporating the mixture to dryness by rotary evaporation. The successful conversion was determined to be Form 2 by IR analysis and corroborated by XRPD analysis.

physchem = type: physicochemical
Protocol: Form 1 and Form 2 have different equilibrium solubilities: Form 2=0.61 mg/mL and Form 1=0.51 mg/mL.

[4] = Storage stability of Form 2; type: physicochemical; details: 40° C./75% RH for up to six months and 25° C./60% RH for up to 12 months; multiple batches

Compound: O=C1NC(=O)[C@@H](c2cn3c4c(cccc24)CCC3)[C@H]1c1c[nH]c2ccccc12 (racemic) [(±)-cis-3-(5,6-dihydro-4H-pyrrolo[3,2,1-ij]quinolin-1-yl)-4-(1H-indol-3-yl)pyrrolidine-2,5-dione]
IC50 [1]: 500 nM
kinase activity in comparison to treatment with carrier alone [2]: did not reduce kinase activity

Compound: O=C1NC(=O)[C@@H](c2cn3c4c(cccc24)CCC3)[C@@H]1c1c[nH]c2ccccc12 (racemic) [(±)-trans-3-(5,6-dihydro-4H-pyrrolo[3,2,1-ij]quinolin-1-yl)-4-(1H-indol-3-yl)pyrrolidine-2,5-dione]
IC50 [1]: 500 nM
kinase activity in comparison to treatment with carrier alone [2]: did not reduce kinase activity

Compound: O=C1NC(=O)[C@@H](c2cn3c4c(cccc24)CCC3)[C@@H]1c1c[nH]c2ccccc12 [(+)-trans-3-(5,6-dihydro-4H-pyrrolo[3,2,1-ij]quinolin-1-yl)-4-(1H-indol-3-yl)pyrrolidine-2,5-dione]
IC50 (MDA-MB-231 cells): 4100 nM
inhibitory effect on c-Met phosphorylation (c-Met): only a minimum inhibitory effect

Second part, led by results:

equilibrium solubilities (physchem): 0.51 mg/mL
Compound: O=C1NC(=O)[C@@H](c2cn3c4c(cccc24)CCC3)[C@@H]1c1c[nH]c2ccccc12 [Form 1, (−)-trans-3-(5,6-dihydro-4H-pyrrolo[3,2,1-ij]quinolin-1-yl)-4-(1H-indol-3-yl)pyrrolidine-2,5-dione]
thermodynamic stability [3]: more thermodynamically stable than Form 2

solubility thermodynamic (physchem; thermodynamic from solid, equilibrium solubilities): 610 µg/mL (≈ 1650 µM)
Compound: O=C1NC(=O)[C@@H](c2cn3c4c(cccc24)CCC3)[C@@H]1c1c[nH]c2ccccc12 [Form 2, (−)-trans-3-(5,6-dihydro-4H-pyrrolo[3,2,1-ij]quinolin-1-yl)-4-(1H-indol-3-yl)pyrrolidine-2,5-dione]
change in crystalline form or purity upon storage [4]: No discernable change in crystalline form or purity
